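Grown in 96-well plates, cells were treated for 48 hours with each compound at five concentrations. Insufficient inhibition: endpoint recorded as highest concentration tested. Definition used: TGI = concentration required for complete inhibition of growth.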
Experiments:
Assay in all cases: NCI tumour cell line growth inhibition, 48 h
786-0 renal = tested on: 786-0 renal
A498 renal = tested on: A498 renal
A549 NSCLC = tested on: A549 NSCLC
ACHN renal = tested on: ACHN renal
CAKI-1 renal = tested on: CAKI-1 renal
CCRF-CEM leukemia = tested on: CCRF-CEM leukemia
DLD-1 colon = tested on: DLD-1 colon
DMS 114 small cell lung = tested on: DMS 114 small cell lung
DMS 273 small cell lung = tested on: DMS 273 small cell lung
EKVX NSCLC = tested on: EKVX NSCLC
HCC-2998 colon = tested on: HCC-2998 colon
HCT-116 colon = tested on: HCT-116 colon
HCT-15 colon = tested on: HCT-15 colon
HL-60(TB) leukemia = tested on: HL-60(TB) leukemia
HOP-62 NSCLC = tested on: HOP-62 NSCLC
HOP-92 NSCLC = tested on: HOP-92 NSCLC
HT29 colon = tested on: HT29 colon
IGROV1 ovarian = tested on: IGROV1 ovarian
K-562 leukemia = tested on: K-562 leukemia
KM12 colon = tested on: KM12 colon
KM20L2 colon = tested on: KM20L2 colon
LOX IMVI melanoma = tested on: LOX IMVI melanoma
M14 melanoma = tested on: M14 melanoma
M19-MEL melanoma = tested on: M19-MEL melanoma
MALME-3M melanoma = tested on: MALME-3M melanoma
MOLT-4 leukemia = tested on: MOLT-4 leukemia
NCI-H226 lung = tested on: NCI-H226 lung
NCI-H23 lung = tested on: NCI-H23 lung
NCI-H460 lung = tested on: NCI-H460 lung
NCI-H522 lung = tested on: NCI-H522 lung
OVCAR-3 ovarian = tested on: OVCAR-3 ovarian
OVCAR-4 ovarian = tested on: OVCAR-4 ovarian
OVCAR-5 ovarian = tested on: OVCAR-5 ovarian
OVCAR-8 ovarian = tested on: OVCAR-8 ovarian
RPMI-8226 leukemia = tested on: RPMI-8226 leukemia
RXF 393 renal = tested on: RXF 393 renal
RXF-631 renal = tested on: RXF-631 renal
SF-295 CNS = tested on: SF-295 CNS
SF-539 CNS = tested on: SF-539 CNS
SK-MEL-2 melanoma = tested on: SK-MEL-2 melanoma
SK-MEL-5 melanoma = tested on: SK-MEL-5 melanoma
SK-OV-3 ovarian = tested on: SK-OV-3 ovarian
SN12C renal = tested on: SN12C renal
SNB-19 CNS = tested on: SNB-19 CNS
SNB-78 CNS = tested on: SNB-78 CNS
SW-620 colon = tested on: SW-620 colon
TK-10 renal = tested on: TK-10 renal
U251 CNS = tested on: U251 CNS
UACC-257 melanoma = tested on: UACC-257 melanoma
UACC-62 melanoma = tested on: UACC-62 melanoma
UO-31 renal = tested on: UO-31 renal
XF 498 CNS = tested on: XF 498 CNS
COLO 205 colon = tested on: COLO 205 colon
LXFL 529 NSCLC = tested on: LXFL 529 NSCLC
SF-268 CNS = tested on: SF-268 CNS
SK-MEL-28 melanoma = tested on: SK-MEL-28 melanoma
SNB-75 CNS = tested on: SNB-75 CNS

C/C(=C\C(C[C@](C)(O)C(O)CCC#C[Si](C)(C)C)S(=O)(=O)c1ccccc1)CC/C=C/CO[Si](C)(C)C(C)(C)C (some centres not stated) gave a TGI (786-0 renal) of 31.5 µM, a TGI (A498 renal) of 31.9 µM and a TGI (A549 NSCLC) of 30.2 µM. The TGI (ACHN renal) was 29.6 µM, the TGI (CAKI-1 renal) was 33 µM and the TGI (CCRF-CEM leukemia) was 28.9 µM. It also gave a TGI (DLD-1 colon) of 48.2 µM, a TGI (DMS 114 small cell lung) of 32.9 µM and a TGI (DMS 273 small cell lung) of 30.6 µM. It also gave a TGI (EKVX NSCLC) of 38.4 µM, a TGI (HCC-2998 colon) of 40.6 µM and a TGI (HCT-116 colon) of 26.6 µM. For the same molecule, the TGI (HCT-15 colon) was 34.4 µM, the TGI (HL-60(TB) leukemia) was 33.2 µM and the TGI (HOP-62 NSCLC) was 39.2 µM. The TGI (HOP-92 NSCLC) was 25.5 µM, the TGI (HT29 colon) was 12.7 µM and the TGI (IGROV1 ovarian) was 41 µM. It also gave a TGI (K-562 leukemia) of 29 µM, a TGI (KM12 colon) of 32.6 µM and a TGI (KM20L2 colon) of 24 µM. It also gave a TGI (LOX IMVI melanoma) of 28.7 µM, a TGI (M14 melanoma) of 34 µM and a TGI (M19-MEL melanoma) of 32.5 µM. For the same molecule, the TGI (MALME-3M melanoma) was 40.4 µM, the TGI (MOLT-4 leukemia) was 23.1 µM and the TGI (NCI-H226 lung) was 38.8 µM. The TGI (NCI-H23 lung) was 41.9 µM, the TGI (NCI-H460 lung) was 27 µM and the TGI (NCI-H522 lung) was 33 µM. The TGI (OVCAR-3 ovarian) was 29.6 µM, the TGI (OVCAR-4 ovarian) was 27.9 µM and the TGI (OVCAR-5 ovarian) was 26.9 µM. It also gave a TGI (OVCAR-8 ovarian) of 33.6 µM, a TGI (RPMI-8226 leukemia) of 31.6 µM and a TGI (RXF 393 renal) of 31.3 µM. It also gave a TGI (RXF-631 renal) of 23.9 µM, a TGI (SF-295 CNS) of 31.1 µM and a TGI (SF-539 CNS) of 37 µM. It also gave a TGI (SK-MEL-2 melanoma) of 44.1 µM, a TGI (SK-MEL-5 melanoma) of 28.1 µM and a TGI (SK-OV-3 ovarian) of 40.3 µM. The TGI (SN12C renal) was 19 µM, the TGI (SNB-19 CNS) was 41.6 µM and the TGI (SNB-78 CNS) was 35.6 µM. For the same molecule, the TGI (SW-620 colon) was 35.3 µM, the TGI (TK-10 renal) was 37.7 µM and the TGI (U251 CNS) was 26.5 µM. For the same molecule, the TGI (UACC-257 melanoma) was 32.5 µM, the TGI (UACC-62 melanoma) was 33.9 µM and the TGI (UO-31 renal) was 36.4 µM. For the same molecule, the TGI (XF 498 CNS) was 26.2 µM.

Molecule CC1SC2=NC3=C(c4ccccc4C3=O)C(c3ccccc3Cl)N2C1=O (configuration not stated) has a TGI (786-0 renal) of over 100 µM, a TGI (A498 renal) of over 100 µM and a TGI (A549 NSCLC) of over 100 µM. The TGI (ACHN renal) was over 100 µM, the TGI (CAKI-1 renal) was over 100 µM and the TGI (CCRF-CEM leukemia) was over 100 µM. The TGI (COLO 205 colon) was over 100 µM, the TGI (DLD-1 colon) was over 100 µM and the TGI (DMS 114 small cell lung) was over 100 µM. The TGI (DMS 273 small cell lung) was over 100 µM, the TGI (EKVX NSCLC) was over 100 µM and the TGI (HCC-2998 colon) was over 100 µM. The TGI (HCT-116 colon) was over 100 µM, the TGI (HCT-15 colon) was over 100 µM and the TGI (HL-60(TB) leukemia) was over 100 µM. For the same molecule, the TGI (HOP-62 NSCLC) was over 100 µM, the TGI (HOP-92 NSCLC) was over 100 µM and the TGI (HT29 colon) was over 100 µM. It also gave a TGI (IGROV1 ovarian) of over 100 µM, a TGI (K-562 leukemia) of over 100 µM and a TGI (KM12 colon) of over 100 µM. The TGI (KM20L2 colon) was over 100 µM, the TGI (LOX IMVI melanoma) was over 100 µM and the TGI (LXFL 529 NSCLC) was over 100 µM. For the same molecule, the TGI (M14 melanoma) was over 100 µM, the TGI (M19-MEL melanoma) was over 100 µM and the TGI (MALME-3M melanoma) was over 100 µM. The TGI (MOLT-4 leukemia) was over 100 µM, the TGI (NCI-H226 lung) was over 100 µM and the TGI (NCI-H23 lung) was over 100 µM. For the same molecule, the TGI (NCI-H460 lung) was over 100 µM, the TGI (NCI-H522 lung) was 96.3 µM and the TGI (OVCAR-3 ovarian) was over 100 µM. It also gave a TGI (OVCAR-4 ovarian) of over 100 µM, a TGI (OVCAR-5 ovarian) of over 100 µM and a TGI (OVCAR-8 ovarian) of over 100 µM. The TGI (RPMI-8226 leukemia) was over 100 µM, the TGI (RXF-631 renal) was over 100 µM and the TGI (SF-268 CNS) was over 100 µM. The TGI (SF-295 CNS) was over 100 µM, the TGI (SF-539 CNS) was over 100 µM and the TGI (SK-MEL-2 melanoma) was over 100 µM. It also gave a TGI (SK-MEL-28 melanoma) of over 100 µM, a TGI (SK-MEL-5 melanoma) of over 100 µM and a TGI (SK-OV-3 ovarian) of over 100 µM. The TGI (SN12C renal) was over 100 µM, the TGI (SNB-19 CNS) was over 100 µM and the TGI (SNB-75 CNS) was over 100 µM. It also gave a TGI (SW-620 colon) of over 100 µM, a TGI (TK-10 renal) of over 100 µM and a TGI (U251 CNS) of over 100 µM. The TGI (UACC-257 melanoma) was over 100 µM, the TGI (UACC-62 melanoma) was over 100 µM and the TGI (UO-31 renal) was over 100 µM. It also gave a TGI (XF 498 CNS) of over 100 µM.

From PubChem BioAssay (NCI)
